Results published in US10954214B2 (Janssen Pharmaceutica NV, priority 2016, dated 2021).

Each compound was assayed against full-length MALT1 protein (Strep-MALT1(1-824)-His) (Homo sapiens (Human), UniProt Q9UDY8) (assay: MALT1 Biochemical Protease Assay (Ac-LRSR-AMC substrate)). Conditions: 10 nM FL MALT1, 200 μM Ac-LRSR-AMC, 4 h at RT; read-out: MALT1_Biochemical activity (Ac-LRSR-amc) IC50.
Method: The tetrapeptide LRSR is coupled to AMC (7-amino-4-methylcoumarin) and provides a quenched, fluorescent substrate for the MALT1 protease (SM Biochemicals). […] Test compound concentrations ranged from 30 μM to 0.5 nM using 11 dilution steps (1:3). Background signal was measured from control wells containing assay buffer without enzyme which functions as low control (LC). High control (HC) values were generated using the reaction with enzyme but no compound treatment. Compounds were pre-incubated with MALT1 enzyme for 50 minutes at RT. […] The reaction was subsequently incubated for 4 h at RT and fluorescence was measured.
LC=Median of the low control values
An estimate of the slope of the plot in terms of the Hill coefficient was also obtained. IC50 Calculation:
[formula] With • UB=upper bound • LB=lower bound Used in “Lexis Dose Response Curve Fitting” Version 1.0.

Chain of full-length MALT1 protein (Strep-MALT1(1-824)-His) (Q9UDY8 whole entry): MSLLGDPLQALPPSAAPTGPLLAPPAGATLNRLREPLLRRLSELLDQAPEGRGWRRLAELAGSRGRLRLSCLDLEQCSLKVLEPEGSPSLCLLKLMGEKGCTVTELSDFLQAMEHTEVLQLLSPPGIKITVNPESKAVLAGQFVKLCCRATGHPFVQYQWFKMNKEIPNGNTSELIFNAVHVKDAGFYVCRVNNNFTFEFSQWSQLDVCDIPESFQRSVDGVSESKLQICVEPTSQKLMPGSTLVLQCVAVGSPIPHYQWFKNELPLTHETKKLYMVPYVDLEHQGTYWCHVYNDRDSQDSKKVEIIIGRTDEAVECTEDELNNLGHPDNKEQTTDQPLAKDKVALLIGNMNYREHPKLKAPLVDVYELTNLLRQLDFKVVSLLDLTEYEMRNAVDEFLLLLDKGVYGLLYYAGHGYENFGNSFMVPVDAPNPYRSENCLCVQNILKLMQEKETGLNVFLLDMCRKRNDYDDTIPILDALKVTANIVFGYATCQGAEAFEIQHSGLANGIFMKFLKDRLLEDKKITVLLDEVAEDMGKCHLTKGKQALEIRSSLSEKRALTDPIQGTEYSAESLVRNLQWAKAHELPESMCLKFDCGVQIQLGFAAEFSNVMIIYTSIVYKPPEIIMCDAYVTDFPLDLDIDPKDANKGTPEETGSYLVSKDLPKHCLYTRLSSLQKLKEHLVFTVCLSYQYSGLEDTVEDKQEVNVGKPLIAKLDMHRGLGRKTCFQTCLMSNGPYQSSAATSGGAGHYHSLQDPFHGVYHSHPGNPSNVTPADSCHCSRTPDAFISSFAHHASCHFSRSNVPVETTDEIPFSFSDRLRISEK

IC50 [nM]	Compound
4170	O=C(Nc1cnc(-n2cccn2)c(Cl)c1)c1cnn(-c2cccc3ccncc23)c1C(F)(F)F [Cpd 15, N-(5-chloro-6-(1H-pyrazol-1-yl)pyridin-3-yl)-1-(isoquinolin-8-yl)-5-(trifluoromethyl)-1H-pyrazole-4-carboxamide]
1440	Cc1ccc2c(-n3ncc(C(=O)Nc4cnc(-n5nccn5)c(Cl)c4)c3C(F)(F)F)cccc2n1 [Cpd 37, N-(5-Chloro-6-(2H-1,2,3-triazol-2-yl)pyridin-3-yl)-1-(2-methylquinolin-5-yl)-5-(trifluoromethyl)-1H-pyrazole-4-carboxamide]
4070	O=C(Nc1ccc(-n2cccn2)c(Cl)c1)c1cnn(-c2cccc3ccncc23)c1C(F)(F)F [Cpd 12, N-(3-chloro-4-(1H-pyrazol-1-yl)phenyl)-1-(isoquinolin-8-yl)-5-(trifluoromethyl)-1H-pyrazole-4-carboxamide]
6030	N#Cc1ncc(NC(=O)c2cnn(-c3cccc4ccncc34)c2C(F)(F)F)cc1C(F)(F)F [Cpd 13, N-(6-cyano-5-(trifluoromethyl)pyridin-3-yl)-1-(isoquinolin-8-yl)-5-(trifluoromethyl)-1H-pyrazole-4-carboxamide]
9550	O=C(Nc1cnc(N2CCCS2(=O)=O)c(Cl)c1)c1cnn(-c2cccc3ccncc23)c1C(F)(F)F [Cpd 20, N-(5-chloro-6-(1,1-dioxidoisothiazolidin-2-yl)pyridin-3-yl)-1-(isoquinolin-8-yl)-5-(trifluoromethyl)-1H-pyrazole-4-carboxamide]
417	N#Cc1cc(NC(=O)c2cnn(-c3cncc4ccccc34)c2C(F)(F)F)ccn1 [Cpd 77, N-(2-cyanopyridin-4-yl)-1-(isoquinolin-4-yl)-5-(trifluoromethyl)-1H-pyrazole-4-carboxamide]
4570	Nc1nccc(-c2ccc(NC(=O)c3cnn(-c4cccc5ccncc45)c3C(F)(F)F)cc2Cl)n1 [Cpd 14, N-(4-(2-aminopyrimidin-4-yl)-3-chlorophenyl)-1-(isoquinolin-8-yl)-5-(trifluoromethyl)-1H-pyrazole]
5010	Cc1ncn(-c2ncc(NC(=O)c3cnn(-c4cccc5ccncc45)c3C(F)(F)F)cc2Cl)n1 [Cpd 30, N-(5-chloro-6-(3-methyl-1H-1,2,4-triazol-1-yl)pyridin-3-yl)-1-(isoquinolin-8-yl)-5-(trifluoromethyl)-1H-pyrazole-4-carboxamide]
2690	N#Cc1cc(NC(=O)c2cnn(-c3cncc4ccccc34)c2C(F)(F)F)cnc1C(=O)N1CCN(CCCCN)CC1 [Cpd 101, N-(6-(4-(4-aminobutyl)piperazine-1-carbonyl)-5-cyanopyridin-3-yl)-1-(isoquinolin-4-yl)-5-(trifluoromethyl)-1H-pyrazole-4-carboxamide]
2460	Cc1ncn(-c2ccc(NC(=O)c3cnn(-c4cccc5ccncc45)c3C(F)(F)F)cc2Cl)n1 [Cpd 29, N-(3-chloro-4-(3-methyl-1H-1,2,4-triazol-1-yl)phenyl)-1-(isoquinolin-8-yl)-5-(trifluoromethyl)-1H-pyrazole-4-carboxamide]
2040	O=C(Nc1cnc(-n2nccn2)c(Cl)c1)c1cnn(-c2cc3ncccc3cc2F)c1C(F)(F)F [Cpd 67, N-(5-Chloro-6-(2H-1,2,3-triazol-2-yl)pyridin-3-yl)-1-(6-fluoroquinolin-7-yl)-5-(trifluoromethyl)-1H-pyrazole-4-carboxamide]
11500	O=C(Nc1cnc(-n2nccn2)c(Cl)c1)c1cnn(-c2cccc3ncccc23)c1 [Cpd 60, N-(5-chloro-6-(2H-1,2,3-triazol-2-yl)pyridin-3-yl)-1-(quinolin-5-yl)-1H-pyrazole-4-carboxamide]
1150	Cc1c(C(=O)Nc2cnc(-n3nccn3)c(Cl)c2)cnn1-c1ccnc2ccccc12 [Cpd 64, N-(5-chloro-6-(2H-1,2,3-triazol-2-yl)pyridin-3-yl)-5-methyl-1-(quinolin-4-yl)-1H-pyrazole-4-carboxamide]
1580	O=C(Nc1ccc(-n2nccn2)nc1)c1cnn(-c2cncc3ccccc23)c1C(F)(F)F [Cpd 71, N-(6-(2H-1,2,3-triazol-2-yl)pyridin-3-yl)-1-(isoquinolin-4-yl)-5-(trifluoromethyl)-1H-pyrazole-4-carboxamide]
8320	O=C(Nc1cnc(-n2nccn2)c(Cl)c1)c1cnn(-c2cncc3ccccc23)c1 [Cpd 76, N-(5-chloro-6-(2H-1,2,3-triazol-2-yl)pyridin-3-yl)-1-(isoquinolin-4-yl)-1H-pyrazole-4-carboxamide]
724	CN1CCC(Oc2ncc(NC(=O)c3cnn(-c4cncc5ccccc45)c3C(F)(F)F)cc2C#N)CC1 [Cpd 80, N-(5-cyano-6-((1-methylpiperidin-4-yl)oxy)pyridin-3-yl)-1-(isoquinolin-4-yl)-5-(trifluoromethyl)-1H-pyrazole-4-carboxamide]
83	COC(=O)c1ncc(NC(=O)c2ncc(NC(=O)c3cnn(-c4cncc5ccccc45)c3C(F)(F)F)cc2Cl)cc1Cl [Cpd 44, Methyl 3-chloro-5-(3-chloro-5-(1-(isoquinolin-4-yl)-5-(trifluoromethyl)-1H-pyrazole-4-carboxamido)picolinamido)picolinate]
8910	Cc1ncnn1-c1ccc(NC(=O)c2cnn(-c3cccc4ccncc34)c2C(F)(F)F)cc1Cl [Cpd 31, N-(3-chloro-4-(5-methyl-1H-1,2,4-triazol-1-yl)phenyl)-1-(isoquinolin-8-yl)-5-(trifluoromethyl)-1H-pyrazole-4-carboxamide]

Compound	IC50 [nM]
N-(3-chloro-4-(1H-1,2,3-triazol-1-yl)phenyl)-1-(isoquinolin-4-yl)-5-(trifluoromethyl)-1H-pyrazole-4-carboxamide [Cpd 18]	2290
